Measurements from patent US10881656B2, “HIF inhibitors and use thereof” (The General Hospital Corporation, priority 2008, dated 2021).

Assays:
[1] = tested on: putative IRE in HIF-1a 5′-UTR; test: Luciferase reporter with putative HIF-1a IRE; format: cell-based, human; settings: 786-O derived reporter lines, normoxia or 1% oxygen
Description: (§1) The consensus sequence of the loop and the mandatory 5′ cytosine bulge are highlighted with light blue circles. […] Duplicate plates of 786-O derived lines expressing the putative wild-type or mutant HIF-1a IRE were cultured in the presence of compound as described for FIG. 1, with the exception that one set was placed at 1% oxygen for 24 hours following the first day's medium-change. Cells were treated with M, medium only; D, DMSO; or compounds, as indicated at the following concentrations: 40, 40 μM; 41, 30 μM; 76, 10 μM; 77, 5 μM. […] CWR22R or Hep3B cells were treated with compound and subjected to hypoxia as described above. B-Actin is shown for loading control. Cells were treated with M, medium only; D, DMSO; or compounds, as indicated at the following concentrations: 40, 40 μM; 41, 30 μM; 76, 20 μM; 77, 7.5 μM.
The lack of a functional IRE in HIF-1a represents a clear dichotomy between the two HIF isoforms that allows their translation to be controlled by a different regulatory system.

HIF and VHL target genes = test: Gene expression profiling and gene set enrichment analysis (GSEA) of compound treated 786-O cells; format: cell-based, human; settings: for regulation of HIF target genes: 786-O cells at experimentally determined IC50 concentrations; for NES, gene set PRC3, VHL null (markers of PRC3 cells compared to WT8 cells) / NES, gene set Schofield, HIF (validated HIF-regulated genes) / NES, gene set Staller, VHL WT (markers of VHL WT cells compared to VHL null cells) / NES, gene set Staller, VHL null (markers of VHL null cells compared to VHL WT cells) / NES, gene set WT8, VHL WT (markers of WT8 cells compared to PRC3 cells): 786-O cells, GSEA normalized enrichment score
Description: RNA from compound treated 786-O cells was isolated as described for qRT-PCR experiments. Labeled cRNA was prepared and hybridized to Affymetrix U133 Plus 2.0 microarrays according to the manufacturer's protocols. Scans were processed using Affymetrix MASS software and median scaled. Gene expression values less than a minimum threshold of 20 or a maximum threshold of 16000 were set to 20 and 16000, respectively. Genes with minimal variation across the dataset were discarded (maximum/minimum<3 or maximum−minimum<100). Class neighbors were identified with GenePattern software using the signal to noise metric (Golub et al., 1999). Hierarchical clustering was performed using dCHIP software. Gene set enrichment analysis was performed as described (Mootha et al., 2003) and significance was determined by permutation of the gene labels. Gene expression signatures were analyzed using the Connectivity Map webtool (build 01). Full details of the Connectivity Map dataset and analytics are provided elsewhere (Lamb et al., 2006). For PGJ2 expression analysis, raw gene-expression data have GEO series accession number GSE13818 and compound signatures from which non-HG-U133A probe sets were removed (see Table 6) were used to query the Connectivity Map (build 02).
Total RNA was extracted from stable 786-O derived VHL-reconstituted (WT8), HIF-2a knock down (pTR) and their respective vector only control (PRC3 and pTV) cells and labeled cRNA was hybridized to oligonucleotide arrays. […] Compound-treated parental 786-O cells were subjected to the same analysis. […] The gene set enrichment analysis (GSEA) algorithm was used to investigate whether the compounds affected the expression of genes identified as VHL and HIF targets in other cell types (Mootha et al., 2003).

[2] = tested on: iron (Fe-(EDHB)3 complex); test: In vitro iron competition assay; settings: 0-200 micromolars, absorbance at 500 nm
Description: This assay was performed similarly to that described previously (Wang et al., 2002). Briefly, displacement of iron from ethyl-3,4-dihydroxybenzoate (EDHB) complex was measured as a decrease in absorbance at 500 nm. Ferric iron, prepared as a 5 mM stock solution of FeC13 in 100 mM sodium citrate, was diluted to 25 μM in the presence of 750 μM EDHB. 1 ml aliquots of this solution were then mixed with 0, 25, 50, 100 or 200 micromolars of compounds 40, 41, 76, and 77 as well as EDTA and DFO for controls. […] The self absorbance of compound 41 in a matched solution lacking Fe-(EDHB)3 was subtracted from the A500 value obtained in the presence of the Fe-(EDHB)3 complex.
The inventors next directly tested whether the compounds bind iron by performing a competition assay in which the displacement of iron from ethyl-3,4-dihydroxybenzoate (EDHB), a weakly chelating ester, was measured as a decrease in absorbance at 500 nm. […] In addition, the inventors utilized the Connectivity Map to look for similarities between the induced gene expression signatures of low and high dose DFO and compound treated cells (Lamb et al., 2006). Using this bioinformatic approach, the inventors discovered no significant similarity between the gene expression profile of the compounds and low (chelating) DFO dose, while there was a negative correlation between compound effect and high (HIF stabilizing) DFO dose (see FIG. 13).

HIF-2a = HIF-2a protein stability (cycloheximide, 35S-methionine pulse chase); format: cell-based, human; settings: 786-O cells; for HIF-2a protein stability after cycloheximide: 10 μg/mL cycloheximide
Description: Cells were treated with medium only, DMSO, or compound as described for western blots. Following the second day of compound incubation, 10 μg/mL cycloheximide (CHx) was added to halt de novo protein synthesis and time points were taken. Protein quantification and Western blots were performed as described.
Cells were treated with medium only, DMSO, or compound as described for western blots. Following the second day of treatment, cells were washed twice in PBS and then placed into medium only, DMSO, or labeling medium (methionine minus DMEM supplemented with 1× glutamine and 5% dialyzed FBS) and pulse-labeled for 30 minutes at 37° C. with 0.5 mCi ^35S-Methionine (New England Nuclear) per p100 plate. Cells were washed twice in PBS and lysed with RIPA buffer supplemented with protease inhibitors. […] In the case of the pulse-chase experiment, two identically treated plates were placed into chasing medium (DMEM supplemented with 10% Fetal Clone I, 1× Glutamine and 3 mg/mL methionine), placed back into the 37° C. incubator and harvested after 1.5 and 3 hours. Immunoprecipitated samples were subjected to SDS-PAGE, enhanced in sodium salicylate, dried and exposed for 2-3 days before the film was quantified by densitometry.
Quantitative RT-PCR was performed on total RNA harvested from 7H4 cells treated with medium only, DMSO or compound. […] To test whether the compounds alter HIF-2a stability, the inventors assessed protein half-life following the addition of cycloheximide in compound versus DMSO-only treated cells (see FIG. 10).

786-O cells = test: Cellular toxicity at IC50 concentrations; format: cell-based, human
HIF-1a = test: Western blot for HIF-1a in hypoxic CWR22R and Hep3B cells; format: cell-based, human; settings: hypoxia
Description: as §1
Hypoxia stabilized HIF-2a in VHL-reconstituted WT8 cells, but treatment with compounds diminished hypoxia-induced HIF-2a expression (FIG. 3C).

[3] = tested on: HIF-2a 5′-UTR Iron-Responsive Element (IRE); test: Luciferase reporters with HIF-2a 5′-UTR / IRE in 786-O cells; format: cell-based, human; settings: for dependence of effect on the IRE (wild-type or mutant 5′-UTR IRE reporter): 786-O luciferase reporter lines; for dependence of effect on HIF-2a 5′-UTR: HIF-2a promoter luciferase with or without 5′-UTR
[4] = tested on: Transferrin Receptor 1 (TfR1) mRNA; test: qRT-PCR for Transferrin Receptor 1 mRNA; settings: compound treated 786-O cells

Structure (SMILES): C/C(=C\c1ccccc1)C(=O)CCN(C)C.Cl [Compound 40, 5-(dimethylamino)-2-methyl-1-phenyl-1-penten-3-one hydrochloride]
- effect on putative IRE in HIF-1a 5′-UTR [1]: do not affect putative IRE in HIF-1a 5′-UTR
- regulation of HIF target genes (HIF and VHL target genes): coordinately downregulate HIF target genes
- NES, gene set PRC3, VHL null (markers of PRC3 cells compared to WT8 cells) (HIF and VHL target genes): NES: −3.50
- NES, gene set Schofield, HIF (validated HIF-regulated genes) (HIF and VHL target genes): NES: −1.65
- NES, gene set Staller, VHL WT (markers of VHL WT cells compared to VHL null cells) (HIF and VHL target genes): NES: −1.75
- NES, gene set Staller, VHL null (markers of VHL null cells compared to VHL WT cells) (HIF and VHL target genes): NES: −2.48
- NES, gene set WT8, VHL WT (markers of WT8 cells compared to PRC3 cells) (HIF and VHL target genes): NES: −1.86
- displacement of iron from EDHB complex (iron chelation) [2]: are not iron chelators
- HIF-2a protein stability by 35S-methionine pulse chase (HIF-2a): have no affect on HIF-2a protein stability
- HIF-2a protein stability after cycloheximide (HIF-2a): no compound of 40, 41, 76 and 77 significantly affects HIF-2a stability
- cellular toxicity (786-O cells): comparative lack of cellular toxicity at IC50 concentrations
- hypoxic induction of HIF-1a (HIF-1a): indirectly suppress hypoxic induction of HIF-1a in multiple cell types
- dependence of effect on the IRE (wild-type or mutant 5′-UTR IRE reporter) [3]: work via the Iron-Responsive Element (IRE)
- dependence of effect on HIF-2a 5′-UTR [3]: dependent upon presence of 5′-UTR
- Transferrin Receptor 1 mRNA expression [4]: increase expression of Transferrin Receptor 1 mRNA

Structure (SMILES): COc1ccc(O)c(/C=C/C(=O)c2c(O)cc(C)oc2=O)c1 [Compound 41, 4-hydroxy-3-[3-(2-hydroxy-5-meoxyphenyl)acryloyl]-6-methyl-2H-pyran-2-one]
- effect on putative IRE in HIF-1a 5′-UTR [1]: do not affect putative IRE in HIF-1a 5′-UTR
- regulation of HIF target genes (HIF and VHL target genes): coordinately downregulate HIF target genes
- NES, gene set PRC3, VHL null (markers of PRC3 cells compared to WT8 cells) (HIF and VHL target genes): NES*: −2.98
- NES, gene set Schofield, HIF (validated HIF-regulated genes) (HIF and VHL target genes): NES: −1.62
- NES, gene set Staller, VHL WT (markers of VHL WT cells compared to VHL null cells) (HIF and VHL target genes): NES: 1.62
- NES, gene set Staller, VHL null (markers of VHL null cells compared to VHL WT cells) (HIF and VHL target genes): NES: −2.42
- NES, gene set WT8, VHL WT (markers of WT8 cells compared to PRC3 cells) (HIF and VHL target genes): NES: 1.58
- displacement of iron from EDHB complex (iron chelation) [2]: are not iron chelators
- HIF-2a protein stability by 35S-methionine pulse chase (HIF-2a): have no affect on HIF-2a protein stability
- HIF-2a protein stability after cycloheximide (HIF-2a): no compound of 40, 41, 76 and 77 significantly affects HIF-2a stability
- cellular toxicity (786-O cells): comparative lack of cellular toxicity at IC50 concentrations
- hypoxic induction of HIF-1a (HIF-1a): indirectly suppress hypoxic induction of HIF-1a in multiple cell types
- dependence of effect on the IRE (wild-type or mutant 5′-UTR IRE reporter) [3]: work via the Iron-Responsive Element (IRE)
- dependence of effect on HIF-2a 5′-UTR [3]: dependent upon presence of 5′-UTR
- Transferrin Receptor 1 mRNA expression [4]: increase expression of Transferrin Receptor 1 mRNA
